Source: patent US20220251081A1, “HETEROBICYCLIC INHIBITORS OF MAT2A AND METHODS OF USE FOR TREATING CANCER” (priority 2019, published 2022)

What was measured:
HCT116 MTAP +/+ = assay: Inhibition of cellular proliferation, 4 days, Cell Titer Glo, HCT116 MTAP+/+; format: cell-based; details: Homo sapiens, HCT-116, 96 h, IC50 score, read-out: 4 Day Relative Growth Inhibition (MTAP +/+)
Description: (§1) Assay for Inhibition of Cellular Proliferation
(§2) Test compound impact on cancer cell growth was assessed by treating cancer cells with compound for 4 days and then measuring proliferation using an ATP-based cell proliferation readout (Cell Titer Glo, Promega Corporation).
(§3) In a typical assay an isogenic pair of HCT116 human colon carcinoma cell lines which vary only in MTAP deletion status (HCT116 MTAP +/+ and HCT116 MTAP−/−) were plated in 96-well dishes at appropriate cell density. Following 24 hours, cells were then treated with the candidate MAT2A inhibitor. Prior to addition to cells, the compound was first serially diluted in 100% DMSO, typically as a 3-fold serial dilution starting at 500× top dose with 10 dose points including DMSO only control. Compound was then transferred to a working stock plate in cell culture media by adding 5 μL of compound in DMSO to 495 μL of cell culture media. This working stock was then added to cells via a further 5-fold dilution, by adding 25 μL of working stock to 100 μL of cells in culture media. Following compound addition, cells were incubated at 37° C./5% C02 for 4 days.
(§4) To measure inhibition of cellular proliferation, cells were allowed to equilibrate to room temperature for 30 minutes, and were then treated with 125 μL of Cell Titer Glo reagent. The plate was then covered with aluminum foil and shaken for 15 minutes to ensure complete mixing and full cell lysis. Luminescent signal was then measured using a plate-based luminometer Veritas version 1.9.2 using ATP standard curve to confirm assay reproducibility from run to run. This luminescence measure was converted to a proliferation index by subtracting from each data point the ATP luminescence signal measured from a bank (no cells) well and dividing by the ATP luminescence signal measured in 0.2% DMSO control well adjusted for signal in blank well. Compound activity was then represented as a percentage change in proliferation relative to a within-plate DMSO control against log 10 of compound concentration in molar (M) units.

HCT116 MTAP-/- = assay: Inhibition of cellular proliferation, 4 days, Cell Titer Glo, HCT116 MTAP-/-; format: cell-based; details: Homo sapiens, HCT-116, 96 h, IC50 score, read-out: 4 Day Relative Growth Inhibition (MTAP −/−)
Description: as §1, §2, §3, §4

[1] = tested on: SAM in HCT116 human colon carcinoma cell line with deleted MTAP gene; assay: Cellular assay of target engagement (SAM): SAM level by LC-MS/MS after 72 hrs; format: cell-based; details: HCT-116, IC50 score, read-out: Cell 72 h SAM Inhibition (MTAP −/−)
Description: Cellular Assay of Target Engagement (SAM)
Measurement of MAT2A activity in cells was made by direct quantitation of the abundance of the product of its enzymatic activity, SAM. Cancer cells were treated with candidate MAT2A inhibitors for a suitable incubation period, and the cells were then lysed using a reagent which quenched any further enzyme activity. Soluble metabolites including SAM were collected and SAM itself was directly measured from the lysate using quantitative LC-MS/MS.
A typical assay was performed using an HCT116 human colon carcinoma cell line which was genetically engineered to delete the MTAP gene (commercially available from Horizon Discovery). This cell line was utilized because it was determined that loss of the MTAP gene predicts sensitivity to MAT2A inhibitors. Cells were plated in 96-well dishes at appropriate cell density. Following 24 hours, cells were then treated with the candidate MAT2A inhibitor. Prior to addition to cells, the compound was first serially diluted in 100% DMSO, typically as a 3-fold serial dilution starting at 500× top dose with 10 dose points including DMSO only control. Compound was then transferred to a working stock plate in cell culture media by adding 5 μL of compound in DMSO to 495 μL of cell culture media. This working stock was then added to cells via a further 5-fold dilution, by adding 25 μL of working stock to 100 μL of cells in culture media. Following compound addition, cells were incubated at 37° C./5% CO2 for 72 hrs.
To quantitate SAM levels following compound treatment, cells were gently washed once in ammonium carbonate buffer (75 mM at pH 7.4), placed on dry ice, and lysed with metabolite extraction buffer (80% cold methanol and 20% water (v/v) with acetic acid at 1M final concentration with 200 ng/mL deuterated d3-SAM as internal control). Following centrifugation at 4° C. at 3,200 rpm for 30 minutes, the supernatant was collected and stored at −80° C. until analysis by Liquid Chromatography with tandem Mass Spectrometry (LC-MS/MS). LC-MS/MS analysis was performed using an API6500 Mass Spectrometer (Sciex, Framingham, Mass., USA) operating in positive ion spray mode and equipped with a Waters UPLC Acquity (Waters, Milford, Mass., USA) BEH Amide column. Multiple Reaction Monitoring data was acquired for SAM and the d3-SAM standard, using a mass transition pair at m/z 399.2→250.1 and 402.2→250.1, respectively. In a typical LC-MS/MS analysis, the initial flow rate was 0.5 ml/min of 25% mobile phase A (acetonitrile and water at 5:95 (v/v) with 1% formic acid and 10 mM ammonium acetate) and 75% mobile phase B (acetonitrile and water at 95:5 (v/v) with 1% formic acid and 10 mM ammonium acetate), 0.2-0.5 minutes with 75%-35% mobile phase B, 25%-65% mobile phase A, at 0.5 min 65% mobile phase A and 35% mobile phase B, 1.0-1.1 minutes with 35%-75% mobile phase B, 65%-25% mobile phase A, at 1.1 min 25% mobile phase A and 75% mobile phase B with a total run time of 1.5 minutes.

MAT2A homodimer = target: T1, MAT2A homodimer (Homo sapiens, UniProt P31153); assay: Biochemical assay: inhibition of recombinant MAT2A homodimer (phosphate release, PiColorLock Gold); details: MAT2A IC50 score; read-out: Enzyme Inhibition
T1 construct: inferred from Ni sepharose purification and imidazole elution; made in house; host or cells: Sf9 insect cells, recombinant baculovirus (Bac to Bac, pFASTBAC1 vector)
In short: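 Baculovirus/Sf9-expressed, Ni-purified MAT2A at 4 μg/mL in pH 8.0 Tris/KCl/MgCl2/EDTA/BSA buffer, preincubated with compound 60 min at 25 °C. Started with ATP and L-methionine substrate mix (500 μM and 40 μM, stock in mix), 60 min at 25 °C; released phosphate by PiColorLock Gold against a phosphate standard curve.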

T1 sequence (P31153 whole entry): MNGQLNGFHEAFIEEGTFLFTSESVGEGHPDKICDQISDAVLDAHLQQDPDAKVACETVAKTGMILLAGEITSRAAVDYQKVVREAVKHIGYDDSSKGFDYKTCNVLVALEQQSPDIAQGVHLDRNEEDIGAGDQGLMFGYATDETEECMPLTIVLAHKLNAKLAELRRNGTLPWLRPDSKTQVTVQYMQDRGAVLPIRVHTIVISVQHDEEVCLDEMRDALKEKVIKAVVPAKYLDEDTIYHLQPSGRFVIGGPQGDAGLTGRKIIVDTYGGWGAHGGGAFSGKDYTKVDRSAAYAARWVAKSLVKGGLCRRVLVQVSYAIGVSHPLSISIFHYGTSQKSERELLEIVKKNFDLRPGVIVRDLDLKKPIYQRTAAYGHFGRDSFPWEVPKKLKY

Row | SMILES | IC50 (HCT116 MTAP +/+) | IC50 (HCT116 MTAP-/-) | IC50 [1] | IC50 (MAT2A homodimer)
1 | COc1ccc(-c2cc3ccc(NCC(F)(F)F)nc3n(-c3ccc(OC)cc3)c2=O)cc1 [Example 131] | ≥ 1000 nM | < 100 nM | < 100 nM | < 100 nM
2 | COc1ccc(-n2c(=O)c(-c3ccc4nn(C)cc4c3)cc3ncc(OCC(F)(F)F)nc32)cc1 [Example 343, 5-(4-methoxyphenyl)-7-(2-methyl-2H-indazol-5-yl)-3-(2,2,2-trifluoroethoxy)pyrido[2,3-b]pyrazin-6(5H)-one] | ≥ 1000 nM | < 100 nM | < 100 nM | < 100 nM
3 | COc1ccc(-c2cc3ccc(NCC(F)(F)F)nc3n(-c3ccc(OC(F)F)cc3)c2=O)cc1 [Example 130, 1-(4-(difluoromethoxy)phenyl)-3-(4-methoxyphenyl)-7-(2,2,2-trifluoroethylamino)-1,8-naphthyridin-2(1H)-one] | ≥ 1000 nM | 100 to 1000 nM | < 100 nM | < 100 nM
4 | COc1ccc(-n2c(=O)c(-c3ccc4ncccc4c3)cc3cnc(NCC(F)(F)F)nc32)cc1 [Example 116] | ≥ 1000 nM | < 100 nM | < 100 nM | < 100 nM
5 | O=c1c(-c2ccc3nncn3c2)cc2ccc(OCC(F)F)nc2n1-c1ccc(Cl)cc1 [Example 218] | ≥ 1000 nM | < 100 nM | < 100 nM | < 100 nM
6 | CCOc1ccc2cc(-c3ccc(OC)cc3)c(=O)n(-c3ccc(NC)nc3)c2n1 [Example 159] | ≥ 1000 nM | 100 to 1000 nM | < 100 nM | < 100 nM
7 | [2H]C([2H])([2H])Oc1ccc(-n2c(=O)c(-c3ccc4nn(C)cc4c3)cc3ccc(O[C@@H](C)C(F)(F)F)nc32)cc1 [Example 305] | ≥ 1000 nM | < 100 nM | < 100 nM | < 100 nM
8 | COc1ccc(-c2cc3cnc(NCC(F)(F)F)nc3n(-c3ccc(OC(F)F)cc3)c2=O)cc1 [Example 127] | ≥ 1000 nM | 100 to 1000 nM | < 100 nM | < 100 nM
9 | CCOc1ccc2cc(-c3ccn4nccc4c3)c(=O)n(-c3ccc(Cl)cc3)c2n1 [Example 204] | ≥ 1000 nM | < 100 nM | < 100 nM | < 100 nM
10 | CCNc1ccc2nc(-c3ccc4nn(C)cc4c3)c(=O)n(-c3ccc(OC)cc3)c2n1 [Example 341] | ≥ 1000 nM | < 100 nM | < 100 nM | < 100 nM
11 | [2H]C([2H])([2H])Oc1ccc(-n2c(=O)c(-c3ccc4nn(C)cc4c3)nc3ccc(OCC(F)F)nc32)cc1 [Example 325] | ≥ 1000 nM | < 100 nM | < 100 nM | < 100 nM
12 | [2H]C([2H])([2H])Oc1ccc(-n2c(=O)c(-c3ccc4nn(C)cc4c3)cc3ccc(OCC(F)(F)F)nc32)cc1 [Example 316] | ≥ 1000 nM | < 100 nM | < 100 nM | < 100 nM
13 | Cn1cc2cc(-c3cc4ccc(OCC(F)F)nc4n(-c4ccc(C5CC5)nc4)c3=O)ccc2n1 [Example 168] | ≥ 1000 nM | < 100 nM | < 100 nM | < 100 nM
14 | O=c1c(-c2ccc3nncn3c2)cc2ccc(OCC(F)(F)F)nc2n1-c1ccc(Cl)cc1 [Example 214] | ≥ 1000 nM | 100 to 1000 nM | < 100 nM | < 100 nM
15 | CCOc1ccc2nc(-c3ccc(OC)cc3)c(=O)n(-c3ccc(OC(F)F)cc3)c2n1 [Example 223] | ≥ 1000 nM | 100 to 1000 nM | 100 to 1000 nM | < 100 nM
16 | Cn1cc2cc(-c3nc4ccc(OCC(F)(F)F)nc4n(-c4ccc(C5CC5)nc4)c3=O)ccc2n1 [Example 332] | ≥ 1000 nM | < 100 nM | < 100 nM | < 100 nM
17 | Cn1cc2cc(-c3cc4ccc(OCC(F)F)nc4n(-c4ccc5scnc5c4)c3=O)ccc2n1 [Example 169] | ≥ 1000 nM | 100 to 1000 nM | < 100 nM | < 100 nM

Results, then the compound that gave them:

Row | IC50 (HCT116 MTAP +/+) | IC50 (HCT116 MTAP-/-) | IC50 [1] | IC50 (MAT2A homodimer) | SMILES
18 | ≥ 1000 nM | < 100 nM | < 100 nM | < 100 nM | CCOc1ccc2cc(-c3ccc4nn(C)cc4c3)c(=O)n(-c3ccc4scnc4c3)c2n1 [Example 150]
19 | ≥ 1000 nM | < 100 nM | < 100 nM | < 100 nM | COc1ccc(-n2c(=O)c(-c3ccc4nn(CCO)cc4c3)nc3ccc(OCC(F)(F)F)nc32)cc1 [Example 335, 2-(2-(2-hydroxyethyl)-2H-indazol-5-yl)-4-(4-methoxyphenyl)-6-(2,2,2-trifluoroethoxy)pyrido[2,3-b]pyrazin-3(4H)-one]
20 | ≥ 1000 nM | < 100 nM | < 100 nM | < 100 nM | CCNc1ccc2cc(-c3ccc4nn(C)cc4c3)c(=O)n(-c3ccc(C)nc3)c2n1 [Example 307]
21 | ≥ 1000 nM | < 100 nM | < 100 nM | < 100 nM | Cn1cc2cc(-c3cc4ccc(OC5CC5)nc4n(-c4ccc(Cl)cc4)c3=O)ccc2n1 [Example 121]
22 | ≥ 1000 nM | 100 to 1000 nM | < 100 nM | < 100 nM | [2H]C([2H])([2H])Oc1ccc(-n2c(=O)c(-c3ccc4nn(C)cc4c3)cc3ncc(OCC(F)(F)F)nc32)cc1 [Example 345]
23 | 100 to 1000 nM | < 100 nM | < 100 nM | < 100 nM | Cn1cc2cc(-c3cc4ccc(OCC(F)F)nc4n(-c4ccc(Br)cc4)c3=O)ccc2n1 [Example 318]
24 | 100 to 1000 nM | < 100 nM | < 100 nM | < 100 nM | CCOc1ccc2cc(-c3ccc4nn(C)cc4c3)c(=O)n(-c3ccc(OC)nc3)c2n1 [Example 157]
25 | 100 to 1000 nM | < 100 nM | < 100 nM | < 100 nM | CCOc1ccc2cc(-c3ccc(=O)n(C)c3)c(=O)n(-c3ccc(OC(F)F)cc3)c2n1 [Example 208]
26 | 100 to 1000 nM | < 100 nM | < 100 nM | < 100 nM | COc1ccc(-n2c(=O)c(-c3ccc4nn(C)cc4c3)cc3ccc(OCC(F)F)nc32)cn1 [Example 124]
27 | 100 to 1000 nM | 100 to 1000 nM | < 100 nM | < 100 nM | CCOc1ccc2cc(-c3ccc4nn(CC(C)(C)O)cc4c3)c(=O)n(-c3ccc(Cl)cc3)c2n1 [Example 196]
